SMILES strings stand for the structures.

What all share (format): in vivo
Test [1] has as its system Weissen Leghorn-Küken. The experiment in a line: Intestinal calcium absorption in chicks (serum 45Ca). The note with it: for Serum ^45Ca: serum 45 min after isotope. The source says: b) Intestinale Calcium-Absorption bei Küken
Weissen Leghorn-Küken wird während 21 Tagen unter UV-freier Bestrahlung eine Vitamin D-arme Diät gegeben. Eine Einzeldosis der Testverbindung, gelöst in Propylenglykol, wird den Tieren oral verabreicht. Danach werden zu verschiedenen Zeitpunkten 2 µCi ^45 Ca (Chlorid) oral verabreicht und die Serumradioaktivität 45 Minuten nach Verabreichung des Isotops gemessen. In jeder Versuchsperiode werden Kontrolltiere verwendet, denen nur das Vehikel verabreicht wird. In jeder Behandlungsgruppe und jeder Kontrollgruppe werden 10 oder 11 Küken verwendet.

The test system of test [2] is Männliche Charles River Ratten. The experiment in a line: Prevention of EHDP-induced mineralisation block in rats (epiphyseal plate width). The note with it: for Mittlere Breite der Epiphysenplatte: 10 days with EHDP 2 mg/Ratte s.c., EHDP alone 1182 ± 51, no EHDP 440 ± 2. Here is the method:
c) Verhütung der durch EHDP-induzierten Blockierung der Mineralisierung bei Ratten
Männliche Charles River Ratten werden 10 Tage mit Dinatrium-äthan-1-hydroxy-1,1-diphosphonat (EHDP) behandelt. Die Verbindung wird in destilliertem Wasser in einer Konzentration von 2 mg/0,2 ml/Ratte jeden Tag subcutan verabreicht. Die fluorierte Verbindung wird in Propylenglykol jeden Tag oral verabreicht. Am Tag nach der letzten Behandlung werden die Ratten seziert und deren Tibia durch Silberimprägnierung der Knochensalze behandelt. Die Breite der Epiphysenplatte wird mit einem Mikroskop gemessen. Zur Ermittlung der Aktivität wird die dosisabhängige Verengerung der durch EHDP-Induktion erweiterten Epiphysenplatte gemessen. In jeder Behandlungsgruppe werden 10 Ratten verwendet. Es werden auch positive (EHDP allein) und negative (Vehikel allein) Kontrollgruppen von 10 Ratten in jedem Versuch verwendet.

In test [3] the test system is Weissen Leghorn-Küken. Kind of test: Antirachitic activity in chicks (tibia ash weight). The settings on record: for Mittleres Tibiaaschengewicht: 21 days, vitamin D-deficient diet, vehicle control 120,7 ± 5,9. The source says: a) Antirachitische Aktivität
Weissen Leghorn-Küken wird unter UV-freier Beleuchtung eine Vitamin D-arme, 1% Calcium und 0,7% Phosphor enthaltende Diät gegeben. Die in Propylenglykol gelöste Testverbindung wird während 21 Tagen den am Anfang des Versuchs 1 oder 2 Tage alten Küken oral verabreicht. Kontrolltiere werden mit dem Vehikel behandelt. Die Küken werden am Tag nach dem letzten Behandlungstag seziert und das Tibiaaschengewicht wird ermittelt. Es werden 9 oder 10 Küken für jede Behandlungsgruppe und für die Kontrollgruppe verwendet. Die mittleren Tibiaaschengewichte ausgedrückt in mg sind in der nachfolgenden Tabelle I angegeben.

Where [4] appears, read: 100 ng single oral dose, 24 Std., vehicle 992 ± 81.
[5] abbreviates: 100 ng single oral dose, 48 Std., vehicle 769 ± 90.

As for `C=C1/C(=C\C=C2/CCC[C@]3(C)[C@@H]([C@H](C)CCCC(C)(C)O)CC[C@@H]23)C[C@@H](O)C[C@@H]1O` [Verbindung A, 1a,25-Dihydroxycholecalciferol, reference compound], the “Serum ^45Ca” value is listed as 1800 ± 181 cpm/0,2 ml in the test on Weissen Leghorn-Küken [1] (setting [4]); 1006 ± 133 cpm/0,2 ml in the test with Weissen Leghorn-Küken [1] (setting [5]); 710 ± 62 cpm/0,2 ml in the test with Weissen Leghorn-Küken [1] (200 ng single oral dose, 72 Std., vehicle 647 ± 69).

Consider `C=C1/C(=C\C=C2/CCC[C@]3(C)[C@@H]([C@H](C)CCC(F)(F)C(C)(C)O)CC[C@@H]23)C[C@@H](O)C[C@@H]1O` [fluorierte Verbindung, 24,24-Difluor-la,25-dihydroxycholecalciferol], for which the “Mittlere Breite der Epiphysenplatte” value in test [2] (1 ng/Ratte/Tag oral) worked out at 839 ± 18 Mikron; in test [2] (3 ng/Ratte/Tag oral), 674 ± 18 Mikron; in test [2] (10 ng/Ratte/Tag oral) it was 540 ± 16 Mikron; in test [2] (30 ng/Ratte/Tag oral), 412 ± 9 Mikron. Also, the “Calcifizierung der Tibiaepiphysenplatte” value in test [2] (EHDP-blocked rats, summary in words of Tabelle III) was “die Calcifizierung der Tibiaepiphysenplatte bei EHDP-blockierten Ratten bewirkt”. Also, the “Mittleres Tibiaaschengewicht” value with Weissen Leghorn-Küken [3] (1 ng/Küken/Tag oral) is recorded as 111,5 ± 4,7 mg; in the test with Weissen Leghorn-Küken [3] (3 ng/Küken/Tag oral), 151,1 ± 8,2 mg; in the test with Weissen Leghorn-Küken [3] (10 ng/Küken/Tag oral), 227,1 ± 8,2 mg; with Weissen Leghorn-Küken [3] (30 ng/Küken/Tag oral), 244,8 ± 7,4 mg. Further, in the test on Weissen Leghorn-Küken [3] (summary in words of Tabelle I), the “antirachitische Aktivität” value is on record as “beträchtliche antirachitische Aktivität”. Also, the “Serum ^45Ca” value in the test with Weissen Leghorn-Küken [1] (setting [4]) is 2064 ± 170 cpm/0,2 ml; in the test with Weissen Leghorn-Küken [1] (setting [5]), 1539 ± 99 cpm/0,2 ml; in the test on Weissen Leghorn-Küken [1] (100 ng single oral dose, 72 Std., vehicle 647 ± 69), 1164 ± 90 cpm/0,2 ml; in the test on Weissen Leghorn-Küken [1] (100 ng single oral dose, 96 Std., vehicle 586 ± 70), 998 ± 61 cpm/0,2 ml. Moreover, the “lang andauernde intestinale Calcium-Absorption” value in the test with Weissen Leghorn-Küken [1] (duration after 100 ng Einzeldosis, oral) was 96 Stunden.

(Values after patent publication EP0094644A1, “Utilization of a cholecalciferol derivative” (F. HOFFMANN-LA ROCHE & CO. Aktiengesellschaft, priority 1982, dated 1983).)
